Consider twelve molecules from patent US6784184B2, “5-(arylsulfonyl)-,5-(arylsulfinyl), and 5-(arylsulfanyl)-thiazolidine-2,4-diones useful for inhibition of farnesyl-protein transferase” (Wyeth Holdings Corporation, priority 2001, dated 2004).

Assay [1] deals with FPTase (K-Ras substrate) (UniProt P29702+P49355). In words: in vitro FTase Inhibition Assay, K-Ras as substrate for farnesylation. The class given is biochemical. The settings on record: K-Ras used as substrate for farnesylation. As for the experimental part: (§1) The ability of the compounds of this invention to inhibit FPTase was evaluated in the standard pharmacological in vitro test procedures described below.
(§2) Methods—1. […] 2. Solution #1 is added to FPTase reaction in a volume of […]. 3. Standard reaction mix, […], contains 50 mM Tris (7.5), […], 3 mM MgCl2, 20 mM KCl, 5 mM DTT, 0.2% octyl-B-glucoside, 1% DMSO, […], 10 ng FPTase, and various concentrations of FPTase inhibitors. 4. Incubate for 30-90 min at […] 5. Stop reactions with TCA/SDS (6%/2%), hold at 4° C. for 45-60 min. 6. Filter by manifold or 96 well plate, wash filter 3-5× with TCA (6%). 7. Add scintillant to filters, measure ^3H-FPP incorporation into Ras protein.
(§3) (cpm from precipitated Ras with test compounds)−(background cpm)×100=% inhibition.
(§4) (cpm from precipitated Ras without test compounds)−(background cpm)

The target of assay [2] is FPTase (H-Ras substrate) (UniProt P29702+P49355). Kind of assay: in vitro FTase Inhibition Assay, H-Ras as substrate for farnesylation. The class given is biochemical. As to conditions: H-Ras used as substrate for farnesylation. As for the experimental part:
as §1, §2, §3, §4

For `Cc1ccc([N+](=O)[O-])cc1C#CCCCC1(S(=O)(=O)c2ccc(I)cc2)SC(=O)NC1=O` (stereo not drawn) [Example 125, 5-(4-Iodobenzenesulfonyl)-5-[5-(2-methyl-5-nitrophenyl)pent-4-ynyl]-thiazolidine-2,4-dione], the results for the IC50 in assay [1] and in assay [2] were 400 nM and 30 nM, respectively.
For `COc1ccc(S(=O)(=O)C2(CCCC#Cc3ccc([N+](=O)[O-])cc3OC)SC(=O)NC2=O)cc1` (stereo not drawn) [Example 132, 5-(4-Methoxybenzenesulfonyl)-5-[5-(2-methoxy-4-nitrophenyl)pent-4-ynyl]-thiazolidine-2,4-dione] the same measures were 210 to 1000 nM and 41 to 73 nM.
Consider `Cc1ccc(S(=O)(=O)C2(CC#Cc3ccc(Oc4ccccc4)cc3)SC(=O)NC2=O)cc1` (stereo not drawn) [Example 170, 5-[3-(4-Phenoxyphenyl)prop-2-ynyl]-5-(toluene-4-sulfonyl)-thiazolidine-2,4-dione], for which the IC50 in assay [1] was found to be 4700 nM; in assay [2], 380 nM.
Take `O=C1NC(=O)C(CCCC#Cc2cccc([N+](=O)[O-])c2)(S(=O)(=O)c2ccc(Oc3ccccc3)cc2)S1` (stereo not drawn) [Example 119, 5-[5-(3-Nitrophenyl)pent-4-ynyl]-5-(4-phenoxybenzenesulfonyl)-thiazolidine-2,4-dione]: the IC50 fell in the range of 1300 to 1700 nM in assay [1] and 130 to 140 nM in assay [2].
Regarding `COc1ccc(S(=O)(=O)C2(CC#Cc3ccc(-c4ccccc4)cc3)SC(=O)NC2=O)cc1` (stereo not drawn) [Example 171, 5-(3-Biphenyl-4-yl-prop-2-ynyl)-5-(4-methoxybenzenesulfonyl)-thiazolidine-2,4-dione], the IC50 in assay [1] was 3300 nM; in assay [2], 200 nM.
As for `COc1ccc(S(=O)(=O)C2(CCCC#Cc3cccc([N+](=O)[O-])c3)SC(=O)NC2=O)cc1` (stereo not drawn) [Example 118, 5-(4-Methoxybenzenesulfonyl)-5-[5-(3-nitrophenyl)pent-4-ynyl]-thiazolidine-2,4-dione], the IC50 came out at 1900 nM in assay [1] and 70 nM in assay [2].
For `CCCCOC(=O)Nc1ccc(C)c(C#CCCCC2(S(=O)(=O)c3ccc(OC)cc3)SC(=O)NC2=O)c1` (stereo not drawn) [Example 181, (3-{5-[5-(4-Methoxybenzenesulfonyl)-2,4-dioxothiazolidin-5-yl]pent-1-ynyl}-4-methylphenyl)carbamic Acid Butyl Ester] the same measures were 100 to 130 nM and 10 to 32 nM.
For `COc1ccc(S(=O)(=O)C2(CCCC#Cc3cccs3)SC(=O)NC2=O)cc1` (stereo not drawn) [Example 166, 5-(4-Methoxybenzenesulfonyl)-5-(5-thiophen-2-yl-pent-4-ynyl)-thiazolidine-2,4-dione], in that order: 5300 nM and 150 nM.
In the case of `COc1ccc(S(=O)(=O)C2(CCCC#Cc3ccc(OC(F)(F)F)cc3)SC(=O)NC2=O)cc1` (stereo not drawn) [Example 154, 5-(4-Methoxybenzenesulfonyl)-5-[5-(4-trifluoromethoxyphenyl)pent-4-ynyl]-thiazolidine-2,4-dione], the concentration for half-maximal inhibition (IC50) in assay [1] lay in the range of 1000 to 2500 nM; in assay [2], 70 to 150 nM.
For `O=C1NC(=O)C(CCCC#Cc2ccc(-n3cccc3)cc2)(S(=O)(=O)c2ccc(I)cc2)S1` (stereo not drawn) [Example 162, 5-(4-Iodo-benzenesulfonyl)-5-[5-(4-pyrrol-1-yl-phenyl)pent-4-ynyl]-thiazolidine-2,4-dione], in that order: 4000 nM and 1210 nM.
Take `COc1ccc(S(=O)(=O)C2(CCCC#Cc3ccc(NC(=O)OC(C)(C)C)cc3C)SC(=O)NC2=O)cc1` (stereo not drawn) [Example 149, (4-{5-[5-(4-Methoxybenzenesulfonyl)-2,4-dioxo-thiazolidin-5-yl]pent-1-ynyl}-3-methylphenyl)carbamic Acid tert-Butyl Ester]: the IC50 fell in the range of 1000 to 4900 nM in assay [1] and 450 to 500 nM in assay [2].
On to `COc1ccc(S(=O)(=O)C2(CCCC#Cc3cccc(Cl)c3)SC(=O)NC2=O)cc1` (stereo not drawn) [Example 102, 5-[5-(3-Chlorophenyl)pent-4-ynyl]-5-(4-methoxybenzenesulfonyl)-thiazolidine-2,4-dione], for which the IC50 in assay [1] is 1400 nM; in assay [2] it was 30 to 32 nM.
